One assay has as its target T1, PHKg2 (Homo sapiens, UniProt P15735).
T1 sequence (P15735 1-406): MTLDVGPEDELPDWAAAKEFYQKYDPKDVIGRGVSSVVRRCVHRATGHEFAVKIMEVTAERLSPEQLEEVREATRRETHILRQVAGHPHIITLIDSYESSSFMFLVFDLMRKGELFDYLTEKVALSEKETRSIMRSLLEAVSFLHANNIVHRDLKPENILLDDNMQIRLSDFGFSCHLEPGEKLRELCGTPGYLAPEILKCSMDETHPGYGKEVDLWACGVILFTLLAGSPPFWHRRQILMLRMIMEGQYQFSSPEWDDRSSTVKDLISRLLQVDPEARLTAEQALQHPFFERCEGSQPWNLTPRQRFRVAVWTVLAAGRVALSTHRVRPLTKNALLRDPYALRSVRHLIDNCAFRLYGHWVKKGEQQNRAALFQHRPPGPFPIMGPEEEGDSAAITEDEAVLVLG
Kind of assay: biochemical. The note with it: read-out: % enzyme activity, 1 μM; Run 1, Run 2.

A further assay addresses CAMK2g (Homo sapiens, UniProt Q13555). Kind of assay: biochemical. Particulars: read-out: % enzyme activity, 1 μM; Run 1, Run 2.
For a further assay, the target named is OSR1/OXSR1 (Homo sapiens, UniProt O95747). The note with it: 1 μM; Run 1, Run 2.
Chain of OSR1/OXSR1 (O95747 whole entry): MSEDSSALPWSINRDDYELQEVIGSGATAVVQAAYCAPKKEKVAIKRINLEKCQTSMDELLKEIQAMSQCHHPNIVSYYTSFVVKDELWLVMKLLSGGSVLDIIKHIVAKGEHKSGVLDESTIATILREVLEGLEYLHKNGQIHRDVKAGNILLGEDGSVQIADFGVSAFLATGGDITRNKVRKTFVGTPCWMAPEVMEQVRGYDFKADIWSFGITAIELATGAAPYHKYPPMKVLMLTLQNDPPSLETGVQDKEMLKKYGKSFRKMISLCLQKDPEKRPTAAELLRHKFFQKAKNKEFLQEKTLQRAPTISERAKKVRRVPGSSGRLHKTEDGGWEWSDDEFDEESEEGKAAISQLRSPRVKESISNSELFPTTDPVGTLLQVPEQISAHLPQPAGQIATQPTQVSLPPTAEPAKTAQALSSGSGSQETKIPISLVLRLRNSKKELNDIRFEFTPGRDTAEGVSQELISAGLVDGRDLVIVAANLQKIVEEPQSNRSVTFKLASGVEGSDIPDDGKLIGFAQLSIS
A further assay concerns the target T2, Haspin (Homo sapiens, UniProt Q8TF76).
T2 sequence (Q8TF76 1-798): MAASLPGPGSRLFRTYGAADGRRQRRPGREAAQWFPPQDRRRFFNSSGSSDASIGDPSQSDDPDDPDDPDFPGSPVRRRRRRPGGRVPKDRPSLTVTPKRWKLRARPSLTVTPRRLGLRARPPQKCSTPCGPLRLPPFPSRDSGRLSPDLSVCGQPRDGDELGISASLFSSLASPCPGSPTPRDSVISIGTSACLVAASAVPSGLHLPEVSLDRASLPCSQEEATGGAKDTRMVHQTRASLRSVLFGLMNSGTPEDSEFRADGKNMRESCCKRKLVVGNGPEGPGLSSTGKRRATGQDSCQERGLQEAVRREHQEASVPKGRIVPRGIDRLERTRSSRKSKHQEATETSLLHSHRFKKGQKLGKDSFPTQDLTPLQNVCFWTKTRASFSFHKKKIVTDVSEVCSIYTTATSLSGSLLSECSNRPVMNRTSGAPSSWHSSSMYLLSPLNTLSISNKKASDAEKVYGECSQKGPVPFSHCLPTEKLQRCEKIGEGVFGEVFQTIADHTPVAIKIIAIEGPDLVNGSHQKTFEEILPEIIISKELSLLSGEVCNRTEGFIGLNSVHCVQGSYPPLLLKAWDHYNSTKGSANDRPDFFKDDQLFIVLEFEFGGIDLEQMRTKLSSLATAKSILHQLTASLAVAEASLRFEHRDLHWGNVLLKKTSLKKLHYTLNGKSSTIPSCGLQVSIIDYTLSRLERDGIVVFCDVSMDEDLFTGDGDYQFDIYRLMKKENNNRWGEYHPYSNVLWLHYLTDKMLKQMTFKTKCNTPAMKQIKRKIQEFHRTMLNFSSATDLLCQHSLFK
Put plainly: biochemical. The note with it: read-out: % enzyme activity, 1 μM; Run 1, Run 2.

The target of another assay is MELK (Homo sapiens, UniProt Q14680). Particulars: 1 μM; Run 1, Run 2.
Chain of MELK (Q14680 whole entry): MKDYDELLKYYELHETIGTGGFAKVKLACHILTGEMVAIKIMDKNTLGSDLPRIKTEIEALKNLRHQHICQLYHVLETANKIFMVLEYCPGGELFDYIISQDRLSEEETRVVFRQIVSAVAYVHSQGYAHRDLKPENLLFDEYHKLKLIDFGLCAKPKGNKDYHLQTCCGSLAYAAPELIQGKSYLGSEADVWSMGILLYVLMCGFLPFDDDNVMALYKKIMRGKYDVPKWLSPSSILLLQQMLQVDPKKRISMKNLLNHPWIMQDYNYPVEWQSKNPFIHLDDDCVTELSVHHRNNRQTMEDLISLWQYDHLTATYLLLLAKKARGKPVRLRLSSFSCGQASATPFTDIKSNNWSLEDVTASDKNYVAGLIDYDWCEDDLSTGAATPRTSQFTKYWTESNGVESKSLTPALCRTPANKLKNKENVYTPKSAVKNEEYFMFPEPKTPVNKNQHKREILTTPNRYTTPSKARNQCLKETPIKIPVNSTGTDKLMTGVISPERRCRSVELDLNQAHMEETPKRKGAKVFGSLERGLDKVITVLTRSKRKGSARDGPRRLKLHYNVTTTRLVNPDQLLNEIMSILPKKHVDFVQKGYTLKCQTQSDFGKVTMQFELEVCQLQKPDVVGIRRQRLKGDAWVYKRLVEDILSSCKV
The next assay deals with T3, EPHB3 (Homo sapiens, UniProt P54753).
T3 sequence (P54753 34-998): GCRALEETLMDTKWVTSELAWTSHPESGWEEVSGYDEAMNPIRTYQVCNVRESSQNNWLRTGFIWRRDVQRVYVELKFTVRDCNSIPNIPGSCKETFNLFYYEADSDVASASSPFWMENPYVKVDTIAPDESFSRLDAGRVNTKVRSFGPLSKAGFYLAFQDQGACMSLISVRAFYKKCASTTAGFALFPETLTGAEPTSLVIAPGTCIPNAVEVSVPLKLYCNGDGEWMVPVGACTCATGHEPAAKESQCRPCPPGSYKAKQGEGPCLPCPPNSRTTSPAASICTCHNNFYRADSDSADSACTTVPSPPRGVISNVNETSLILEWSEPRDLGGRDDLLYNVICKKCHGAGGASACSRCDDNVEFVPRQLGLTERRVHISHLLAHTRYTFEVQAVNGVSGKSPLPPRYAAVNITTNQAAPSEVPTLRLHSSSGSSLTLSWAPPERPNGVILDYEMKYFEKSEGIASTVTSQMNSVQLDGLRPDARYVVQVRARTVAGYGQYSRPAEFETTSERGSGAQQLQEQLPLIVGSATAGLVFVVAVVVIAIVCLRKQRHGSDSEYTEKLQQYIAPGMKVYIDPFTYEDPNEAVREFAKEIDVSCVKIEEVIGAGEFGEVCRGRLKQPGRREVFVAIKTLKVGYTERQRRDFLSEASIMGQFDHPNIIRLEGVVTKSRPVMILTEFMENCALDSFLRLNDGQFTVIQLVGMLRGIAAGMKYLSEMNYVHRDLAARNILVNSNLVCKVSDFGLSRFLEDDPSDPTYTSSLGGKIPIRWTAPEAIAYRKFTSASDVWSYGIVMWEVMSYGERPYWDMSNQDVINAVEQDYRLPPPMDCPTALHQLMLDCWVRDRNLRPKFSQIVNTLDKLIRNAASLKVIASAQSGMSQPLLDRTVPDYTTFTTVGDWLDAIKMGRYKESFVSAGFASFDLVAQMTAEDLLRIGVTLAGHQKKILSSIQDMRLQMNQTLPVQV
Particulars: 1 μM; Run 1, Run 2.

The target of another assay is PKCeta (Homo sapiens, UniProt P24723). The note with it: 1 μM; Run 1, Run 2.
Chain of PKCeta (P24723 whole entry): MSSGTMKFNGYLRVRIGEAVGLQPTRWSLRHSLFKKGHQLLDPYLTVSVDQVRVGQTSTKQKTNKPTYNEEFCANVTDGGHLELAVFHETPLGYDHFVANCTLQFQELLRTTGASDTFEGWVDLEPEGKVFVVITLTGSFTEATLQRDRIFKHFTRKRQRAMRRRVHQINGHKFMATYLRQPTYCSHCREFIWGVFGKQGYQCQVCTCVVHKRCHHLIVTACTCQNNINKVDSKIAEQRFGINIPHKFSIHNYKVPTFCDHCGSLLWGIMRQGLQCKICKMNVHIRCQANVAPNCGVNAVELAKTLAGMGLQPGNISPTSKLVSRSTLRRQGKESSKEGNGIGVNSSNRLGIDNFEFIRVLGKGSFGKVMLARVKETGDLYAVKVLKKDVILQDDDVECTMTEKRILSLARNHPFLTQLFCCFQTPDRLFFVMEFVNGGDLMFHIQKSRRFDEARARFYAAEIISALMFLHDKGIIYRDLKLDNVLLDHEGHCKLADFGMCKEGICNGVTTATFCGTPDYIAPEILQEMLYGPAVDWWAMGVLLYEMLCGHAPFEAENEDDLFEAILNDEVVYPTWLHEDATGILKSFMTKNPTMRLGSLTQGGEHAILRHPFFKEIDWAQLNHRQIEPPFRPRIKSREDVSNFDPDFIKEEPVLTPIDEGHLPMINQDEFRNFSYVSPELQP
A further assay deals with T4, CTK/MATK (Homo sapiens, UniProt P42679).
T4 sequence (P42679 1-507): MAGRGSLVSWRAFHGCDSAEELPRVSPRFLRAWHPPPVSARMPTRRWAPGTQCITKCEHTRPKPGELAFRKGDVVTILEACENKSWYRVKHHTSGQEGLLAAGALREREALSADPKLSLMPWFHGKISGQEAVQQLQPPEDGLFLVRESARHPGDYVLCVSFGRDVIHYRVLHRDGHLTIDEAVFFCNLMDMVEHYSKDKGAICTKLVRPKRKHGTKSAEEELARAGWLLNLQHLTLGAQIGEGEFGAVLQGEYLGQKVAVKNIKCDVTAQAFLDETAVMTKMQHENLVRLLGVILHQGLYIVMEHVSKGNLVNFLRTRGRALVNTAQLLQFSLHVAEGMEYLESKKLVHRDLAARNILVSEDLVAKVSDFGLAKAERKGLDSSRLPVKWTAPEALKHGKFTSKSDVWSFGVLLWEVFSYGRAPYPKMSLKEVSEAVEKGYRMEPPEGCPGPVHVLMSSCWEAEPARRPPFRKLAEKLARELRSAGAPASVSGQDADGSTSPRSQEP
Kind of assay: biochemical. Particulars: read-out: % enzyme activity, 1 μM; Run 1, Run 2.

From paper PMC8213057, “Targeting ALK2: An Open Science Approach to Developing Therapeutics for the Treatment of Diffuse Intrinsic Pontine Glioma” (Journal of Medicinal Chemistry, 2020) come the findings set out here.

Chain of CAMK2g (Q13555 whole entry): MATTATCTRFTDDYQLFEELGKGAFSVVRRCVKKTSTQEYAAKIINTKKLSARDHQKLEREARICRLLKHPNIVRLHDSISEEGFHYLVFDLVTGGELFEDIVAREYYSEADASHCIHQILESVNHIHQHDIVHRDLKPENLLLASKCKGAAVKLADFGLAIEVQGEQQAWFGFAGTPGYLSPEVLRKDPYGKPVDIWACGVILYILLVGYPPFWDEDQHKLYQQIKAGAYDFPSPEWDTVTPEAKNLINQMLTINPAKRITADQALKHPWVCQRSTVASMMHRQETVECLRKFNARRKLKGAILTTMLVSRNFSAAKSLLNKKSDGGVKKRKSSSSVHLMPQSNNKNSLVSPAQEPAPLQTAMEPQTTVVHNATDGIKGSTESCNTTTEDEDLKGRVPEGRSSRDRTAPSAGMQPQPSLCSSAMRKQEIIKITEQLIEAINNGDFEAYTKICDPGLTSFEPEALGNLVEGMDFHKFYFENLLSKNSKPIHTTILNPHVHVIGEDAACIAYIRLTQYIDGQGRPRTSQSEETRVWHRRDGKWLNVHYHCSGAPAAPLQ

Turning to `COc1cc(-c2cncc(-c3ccc(N4CCN(C)CC4)cc3)c2C)cc(F)c1C(N)=O` [Compound 26a, 2-Fluoro-6-methoxy-4-(4-methyl-5-(4-(4-methylpiperazin-1-yl)phenyl)pyridin-3-yl)benzamide], the remaining activity at 1 µM is 94.9% on PHKg2, 103% at CAMK2g, 83.3% at Haspin and 95.2% on CTK/MATK. Further, the “% enzyme activity” value on OSR1/OXSR1 came to 93.34%; on MELK, 98.82%; on EPHB3 it was 95.16%; at PKCeta, 93.90%.
`COc1cc(-c2cncc(-c3ccc(N4C[C@@H](C)N(C)[C@@H](C)C4)cc3)c2C)cc(F)c1C(N)=O` [Compound 26c, 2-Fluoro-6-methoxy-4-(4-methyl-5-(4-((3R,5S)-3,4,5-trimethylpiperazin-1-yl)phenyl)pyridin-3-yl)benzamide]: the remaining activity at 1 µM on PHKg2 was 96.7%; on CAMK2g, 110%; at Haspin, 84.8%; on CTK/MATK, 99.2%. In addition, the “% enzyme activity” value at OSR1/OXSR1 was 94.75%; at MELK, 99.30%; on EPHB3, 96.08%; at PKCeta, 98.10%.
